Source: US8211909B2, “Treatment of antibiotic-resistant bacteria infection” (TaiGen Biotechnology Co., Ltd., priority 2008, dated 2012)
Converted amounts (≈) assume the structure as drawn. Like-named read-outs stand apart in the source and are kept apart here.

Columns and labels:
[1] = system: Staphylococcus aureus strains (MRSA, hVISA, VISA, VRSA, quinolone-resistant MRSA); test: MIC by agar dilution against Staphylococcal strains (MRSA, hVISA, VISA, VRSA, quinolone-resistant MRSA); format: cell-based; settings: for MIC50 / MIC90 / MIC: Staphylococcus aureus
Description: Compound 1 was tested for its inhibitory effect against 26 Methicillin-resistant Staphylococcus aureus (MRSA) strains, 2 hetero-Vancomycin intermediate Staphylococcus aureus (hVISA) strains, 24 Vancomycin-intermediate Staphylococcus aureus (VISA) strains, 5 Vancomycin-resistant Staphylococcus aureus (VRSA) strains, and 31 quinolone-resistant Vancomycin-susceptibale MRSA strains with defined mutations in QRDR. These mutations were determined by sequencing analysis of the QRDR (gyrA, gyrB, grlA, and grlB). Efflux testing was performed by the reserpine method (Brenwald, et al., Antimicrob. Agents Chemother. 1998, 42: 2032-2035).

[2] = system: Vancomycin-resistant E. faecalis; test: MIC by agar dilution (CLSI-M100-S18), Taiwan Enterococci isolates; format: cell-based, Enterococcus faecalis
Description: (§1) Compound 1 was tested for its inhibitory effect against multidrug-resistant Methicillin-resistant Staphylococcus aureus and Enterococci obtained by 10 medical centers in all regions of Taiwan. MICs were determined using the agar dilution methods recommended by the Clinical and Laboratory Standards Institute (CLSI-M100-S18).

[3] = system: multidrug-resistant Methicillin-resistant Staphylococcus aureus; test: MIC by agar dilution (CLSI-M100-S18), Taiwan multidrug-resistant MRSA isolates; format: cell-based; settings: for MIC50 / MIC90: Staphylococcus aureus, MRSA
Description: as §1

[4] = Pharmacokinetic assays of plasma of subjects taking Compound 1; settings: for Cmax: day 10, plasma; for Free AUC0-24 / Free Cmax: corrected for plasma protein binding
Description: 5 mL of each sample was transferred to a heparin sodium tube and immediately placed on ice. Plasma was separated by centrifugation at approximately 4° C. and transferred to appropriately labeled polypropylene specimen containers (two tubes with 1-1.5 mL plasma/tube) and frozen at approximately −70° C. before use.
Prior to analysis of the blood samples, pharmacokinetic assays were validated.
The pharmacokinetic assays of the blood samples were performed by Charles River Laboratories (Worcester, Mass.).

H. pylori isolates = test: MIC by agar dilution against 200 H. pylori isolates (Taiwan); format: cell-based, Helicobacter pylori
Description: MICs were determined using the agar dilution methods recommended by the Clinical and Laboratory Standards Institute (CLSI-M100-S18).

E. faecalis = test: CANWARD 2007 gram-positive cocci, CLSI broth microdilution; format: cell-based; design: unit not given beside the values; settings: E. faecalis (81)
Description: (§2) From January-December 2007, 12 hospitals across Canada submitted isolates from patients attending hospital clinics, emergency rooms, medical and surgical wards, and intensive care units. 7881 isolates (CANWARD 2007) were collected including 3473 gram-positive cocci. Susceptibility testing for Compound 1 and Levofloxacin was performed using the Clinical and Laboratory Standards Institute broth microdilution.

[5] = system: Staphylococcus epidermidis (MSSE, MRSE); test: as above; format: cell-based; design: MIC50 / MIC90: unit not given beside the values
Description: as §2

[6] = system: S. aureus (MSSA, CA-MRSA, HA-MRSA, VISA, VRSA); test: CANWARD 2007 / NARSA gram-positive cocci, CLSI broth microdilution; format: cell-based, Staphylococcus aureus; design: MIC50 / MIC90: unit not given here
Description: as §2

[7] = hVISA(2) + VISA (24) + VRSA (5)
[8] = Enterococcus faecalis, Vancomycin-resistant E. faecalis (n = 34)
[9] = Ciprofloxacin-resistant MRSA (n = 20)
[10] = Ciprofloxacin-susceptible MRSA (n = 20)
[11] = Daptomycin-nonsusceptible MRSA (n = 5)
[12] = Vancomycin-intermediate MRSA (n = 50)
[13] = 500 mg q24 p.o., MIC90 0.125 μg/mL
[14] = 500 mg q24 p.o., MIC90 0.5 μg/mL
[15] = 500 mg q24 p.o., MIC90 0.75 μg/mL
[16] = 750 mg q24 p.o., MIC90 0.125 μg/mL
[17] = 750 mg q24 p.o., MIC90 0.5 μg/mL
[18] = 750 mg q24 p.o., MIC90 0.75 μg/mL
[19] = 1000 mg q24 p.o., MIC90 0.125 μg/mL
[20] = 1000 mg q24 p.o., MIC90 0.5 μg/mL
[21] = 1000 mg q24 p.o., MIC90 0.75 μg/mL
[22] = 1000 mg q24 p.o., MIC90 1 μg/mL
[23] = Helicobacter pylori, 200 isolates of H. pylori

COc1c(N2C[C@@H](C)C[C@H](N)C2)ccc2c(=O)c(C(=O)O)cn(C3CC3)c12 [Compound 1, (3S,5S)-7-[3-amino-5-methyl-piperidinyl]-1-cyclopropyl-1,4-dihydro-8-methoxy-4-oxo-3-quinolinecarboxylic acid]
inhibition (in words) ([1]; Methicillin-resistant, hVISA, VISA, VRSA and quinolone-resistant Vancomycin-susceptible MRSA isolates): effectively inhibited | MIC50 ([1]; MRSA (26)): 0.03 µg/mL (≈ 0.0808 µM) | MIC90 ([1]; MRSA (26)): 0.06 µg/mL (≈ 0.162 µM) | MIC50 ([1]; Quinolone-resistant MRSA (31)): 1 µg/mL (≈ 2.69 µM) | MIC90 ([1]; Quinolone-resistant MRSA (31)): 2 µg/mL (≈ 5.38 µM) | MIC50 [1, 7]: 1 µg/mL | MIC90 [1, 7]: 2 µg/mL | MIC ([1]; read-out: MIC Range, MRSA (26)): 0.016 to 0.06 µg/mL (≈ 0.0431 to 0.162 µM) | MIC ([1]; read-out: MIC Range, Quinolone-resistant MRSA (31)): 0.5 to 4 µg/mL (≈ 1.35 to 10.8 µM) | MIC ([1]; read-out: MIC Range, hVISA(2) + VISA (24) + VRSA (5)): 0.06 to 2 µg/mL | MIC ([1]; read-out: MICs, against these strains): 0.06 to 4 µg/mL (≈ 0.162 to 10.8 µM) | MIC50 [2, 8]: 4 µg/mL (≈ 10.8 µM) | MIC90 [2, 8]: 4 µg/mL (≈ 10.8 µM) | MIC Range ([2]; Vancomycin-resistant E. faecalis (n = 34)): 0.12 to 8 µg/mL | inhibition (in words) ([2]; Vancomycin-resistant Enterococcus faecalis): effective | MIC Range [3, 9]: 0.5 to 1 µg/mL | MIC Range [3, 10]: ≦0.03-0.06 μg/mL | MIC Range [3, 11]: 0.5 to 1 µg/mL | inhibition (in words) ([3]; MRSA isolates that are Ciprofloxacin-resistant, Vancomycin-intermediate-resistant, Daptomycin-nonsusceptible): effective | MIC50 [3, 9]: 0.5 µg/mL (≈ 1.35 µM) | MIC90 [3, 9]: 1 µg/mL (≈ 2.69 µM) | MIC50 [3, 10]: ≤ 0.03 µg/mL | MIC90 [3, 10]: ≤ 0.03 µg/mL | MIC50 [3, 11]: 0.5 µg/mL (≈ 1.35 µM) | MIC90 [3, 11]: 1 µg/mL (≈ 2.69 µM) | MIC50 [3, 12]: 0.5 µg/mL (≈ 1.35 µM) | MIC90 [3, 12]: 2 µg/mL (≈ 5.38 µM) | MIC Range [3, 12]: 0.03 to 8 µg/mL | Cmax ([4]; 500 mg q24 p.o.): 5560 ng/mL | Free AUC0-24/MIC90 ratio at steady state [4, 13]: 259 | Free Cmax/MIC90 ratio at steady state [4, 13]: 37 | Free AUC0-24/MIC90 ratio at steady state [4, 14]: 65 | Free Cmax/MIC90 ratio at steady state [4, 14]: 9 | Free AUC0-24/MIC90 ratio at steady state [4, 15]: 43 | Free Cmax/MIC90 ratio at steady state [4, 15]: 6 | Free AUC0-24/MIC90 ratio at steady state ([4]; 500 mg q24 p.o., MIC90 1 μg/mL): 32 | Free Cmax/MIC90 ratio at steady state ([4]; 500 mg q24 p.o., MIC90 1 μg/mL): 5 | Free AUC0-24/MIC90 ratio at steady state ([4]; 500 mg q24 p.o., MIC90 […]): 130 | Free Cmax/MIC90 ratio at steady state ([4]; 500 mg q24 p.o., MIC90 […]): 19 | Free AUC0-24 ([4]; 500 mg q24 p.o.): 32400 ng·h/mL | Free Cmax ([4]; 500 mg q24 p.o.): 4700 ng/mL | Cmax ([4]; 750 mg q24 p.o.): 6820 ng/mL | Free AUC0-24/MIC90 ratio at steady state [4, 16]: 393 | Free Cmax/MIC90 ratio at steady state [4, 16]: 46 | Free AUC0-24/MIC90 ratio at steady state [4, 17]: 98 | Free Cmax/MIC90 ratio at steady state [4, 17]: 11 | Free AUC0-24/MIC90 ratio at steady state [4, 18]: 65 | Free Cmax/MIC90 ratio at steady state [4, 18]: 8 | Free AUC0-24/MIC90 ratio at steady state ([4]; 750 mg q24 p.o., MIC90 1 μg/mL): 49 | Free Cmax/MIC90 ratio at steady state ([4]; 750 mg q24 p.o., MIC90 1 μg/mL): 6 | Free AUC0-24/MIC90 ratio at steady state ([4]; 750 mg q24 p.o., MIC90 […]): 196 | Free Cmax/MIC90 ratio at steady state ([4]; 750 mg q24 p.o., MIC90 […]): 23 | Free AUC0-24 ([4]; 750 mg q24 p.o.): 49100 ng·h/mL | Free Cmax ([4]; 750 mg q24 p.o.): 5700 ng/mL | Cmax ([4]; 1000 mg q24 p.o.): 8200 ng/mL | Free AUC0-24/MIC90 ratio at steady state [4, 19]: 503 | Free Cmax/MIC90 ratio at steady state [4, 19]: 55 | Free AUC0-24/MIC90 ratio at steady state [4, 20]: 126 | Free Cmax/MIC90 ratio at steady state [4, 20]: 14 | Free AUC0-24/MIC90 ratio at steady state [4, 21]: 84 | Free Cmax/MIC90 ratio at steady state [4, 21]: 9 | Free AUC0-24/MIC90 ratio at steady state [4, 22]: 63 | Free Cmax/MIC90 ratio at steady state [4, 22]: 7 | Free AUC0-24/MIC90 ratio at steady state ([4]; 1000 mg q24 p.o., MIC90 […]): 251 | Free Cmax/MIC90 ratio at steady state ([4]; 1000 mg q24 p.o., MIC90 […]): 28 | Free AUC0-24 ([4]; 1000 mg q24 p.o.): 62900 ng·h/mL | Free Cmax ([4]; 1000 mg q24 p.o.): 6900 ng/mL | inhibition (in words) (H. pylori isolates; H. pylori isolates): effectively inhibited | inhibition compared with other quinolones (in words) (H. pylori isolates; H. pylori isolates): more effective in inhibiting the isolates of H. pylori than Ciprofloxacin, Levofloxacin, and Moxifloxacin, and comparable to Gemifloxacin | MIC50 (H. pylori isolates; [23]): 60 µg/mL (≈ 162 µM) | MIC90 (H. pylori isolates; [23]): 250 µg/mL (≈ 673 µM) | MIC50 (E. faecalis): 0.12 | MIC90 (E. faecalis): 1 | activity compared with Levofloxacin (in words) ([5]; MRSE): more active than Levofloxacin | MIC50 ([5]; MRSE (9)): 2/2 | MIC90 ([5]; MRSE (9)): 2/2 | MIC50 ([5]; MSSE (32)): 0.03 | MIC90 ([5]; MSSE (32)): 0.5 | MIC50 ([6]; CA-MRSA (23)): 0.25 | MIC90 ([6]; CA-MRSA (23)): 0.5 | MIC50 ([6]; HA-MRSA (91)): 4/>4 | MIC90 ([6]; HA-MRSA (91)): 4/>4 | activity compared with Levofloxacin (in words) ([6]; MRSA, VISA, VRSA): more active than Levofloxacin | MIC50 ([6]; MSSA (372)): 0.03 | MIC90 ([6]; MSSA (372)): 0.12 | MIC50 ([6]; VISA (12), NARSA isolates): 1 | MIC90 ([6]; VISA (12), NARSA isolates): 2 | median MIC (single value under head MIC50/MIC90) ([6]; VRSA (7), NARSA isolates): 2
